The values below come from US10308654B2, “Preparation and use of kinase inhibitor” (CHANGZHOU LONGTHERA PHARMACEUTICALS INC, priority 2015, dated 2019).

The term IC50 denotes the concentration that inhibits the measured activity by half. Low readings indicate higher potency, high ones lower potency.

For one experiment, the target named is CDK1/CyclinB (Homo sapiens (Human), UniProt P06493). As to the kind of experiment: CDK kinase activity assay (LANCE TR-FRET, ULight-4E-BP1 substrate). Format: biochemical. The conditions noted are these: 60 minutes incubation. The procedure: (§1) The CDK kinase used in this experiment: CDK4/CyclinD1 (invitrogen, Item No: PV4400); CDK6/CyclinD1 (invitrogen, Item No: PV4401); CDK1/CyclinB (invitrogen, Item No: PV3292).
CDK1/CyclinB, sequence (P06493 whole entry): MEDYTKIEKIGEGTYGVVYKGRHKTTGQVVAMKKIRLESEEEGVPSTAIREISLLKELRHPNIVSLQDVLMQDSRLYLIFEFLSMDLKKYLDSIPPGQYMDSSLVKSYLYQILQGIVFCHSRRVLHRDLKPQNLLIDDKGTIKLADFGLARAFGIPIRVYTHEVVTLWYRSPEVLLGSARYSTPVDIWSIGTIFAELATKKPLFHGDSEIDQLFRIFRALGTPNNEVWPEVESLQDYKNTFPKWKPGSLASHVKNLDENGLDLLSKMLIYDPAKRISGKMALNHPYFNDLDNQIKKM
CDK1/CyclinB, sequence (P14635 whole entry partner): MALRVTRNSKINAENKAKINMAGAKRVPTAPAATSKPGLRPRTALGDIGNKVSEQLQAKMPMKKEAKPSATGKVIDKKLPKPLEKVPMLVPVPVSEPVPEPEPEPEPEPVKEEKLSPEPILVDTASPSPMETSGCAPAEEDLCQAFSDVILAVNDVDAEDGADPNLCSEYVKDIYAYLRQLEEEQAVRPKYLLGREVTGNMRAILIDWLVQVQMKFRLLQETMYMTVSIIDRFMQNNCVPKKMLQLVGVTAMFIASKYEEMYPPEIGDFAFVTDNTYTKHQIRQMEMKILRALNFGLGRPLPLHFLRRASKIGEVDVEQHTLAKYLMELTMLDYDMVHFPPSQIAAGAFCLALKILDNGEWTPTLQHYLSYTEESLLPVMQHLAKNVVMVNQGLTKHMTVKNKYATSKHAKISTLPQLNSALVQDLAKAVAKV
(§2) Reagents used: Substrate is ULight-4E-BP1 (PerkinElmer, Item No: TRF0128); antibody is Eu-labeledanti-phospho-eIF4E-bindingprotein1 (Thr37/46) (Perkin-Elmer, Item No: TRF0216).
(§3) The test compound was dissolved in dimethyl sulfoxide and the solution was diluted to each concentration gradient with a buffer (50 mM HEPES, 10 mM MgCl2, 1 mM EGTA, 2 mM DTT and 0.01% Tween20) according to the test needs, the concentration of dimethyl sulfoxide was 4%. The buffer was then used to dilute ATP and the substrate ULight-4E-BP1 to prepare the mixture of 800 μM ATP and 200 nM substrate for further use. 2.5 μL of mixture of substrate and ATP or 2.5 μL of substrate was added to the wells, and then 2.5 μL of compound or 4% buffer of dimethyl sulfoxide was added, finally 5 μL of enzyme (final concentration was 0.66 μg/mL) was added, incubated avoiding light at room temperature for 60 minutes. 5 μL of EDTA stop buffer (final concentration was […]) diluted with 1×detectionbuffer (LANCEDetectionBuffer, 10×, PerkinElmer, CR97-100) was added to each well, and then 5 μL of antibody (final concentration was 2 nM) diluted with 1×detectionbuffer was added, incubated avoiding light at room temperature for 60 minutes. Perkin Elmer EnVision® TRFRETmode (Excitation wavelength: 320 nm, emission wavelength: 615 nm and 665 nm) was used to measure plates.
(§4) The inhibition rate of the sample was determined by the following formula: […]
(§5) IC50 values were calculated using GraphPadPrism software.
On the technique in general: Time-resolved FRET reads energy transfer from a long-lived donor to a nearby acceptor.

The target in a further experiment is CDK4/CyclinD1 (Homo sapiens (Human), UniProt P11802). The description is as above. Format: biochemical. The conditions noted are these: CDK4/CyclinD1, 60 minutes incubation. As for the experimental part:
as §1, §2, §3, §4, §5

In the next experiment the test system is Colo205 cells. As to the kind of experiment: Proliferation inhibitory activity against human colon cancer cell line Colo205 (CCK8). Format: cell-based. The conditions noted are these: COLO 205, 96 hours. The procedure: In vitro cell assay described below could determine the proliferation inhibitory activity against human colon cancer cell line of the test compounds, and their activities could be represented by IC50 value.
Colo205 cells (Chinese Academy of Sciences typical culture storage committee cell bank) were inoculated in 96-well culture plate with a suitable cell concentration of 2000 cells per hole, 140 μL of medium per well, then incubated in a carbon dioxide incubator at 37° C. overnight. 10 μL of different concentrations of the test compounds were added and reacted for 96 hours, and then the solvent control group (negative control) was set. The proliferation inhibitory activities against tumor cells of the test compounds were tested by CCK8 (CellCounting Kit-8, Item No: CK04, purchased from Tongren Chemical) method after 96 hours. The full-wavelength microplate reader SpectraMax190 was used for reading, the measurement wavelength was 450 nm.
as §4
IC50 value was calculated by four parameter regression using microplate reader with random software.

CDK4/CyclinD1, sequence (P11802 whole entry): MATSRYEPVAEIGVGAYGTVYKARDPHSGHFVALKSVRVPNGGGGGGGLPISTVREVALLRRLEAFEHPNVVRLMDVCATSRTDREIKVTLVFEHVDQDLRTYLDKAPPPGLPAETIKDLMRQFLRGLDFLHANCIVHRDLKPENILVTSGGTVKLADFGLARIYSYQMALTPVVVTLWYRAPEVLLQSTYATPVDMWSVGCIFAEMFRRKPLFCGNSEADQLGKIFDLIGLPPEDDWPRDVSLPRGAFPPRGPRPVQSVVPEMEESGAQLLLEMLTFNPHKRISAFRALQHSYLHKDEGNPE
CDK4/CyclinD1, sequence (P24385 whole entry partner): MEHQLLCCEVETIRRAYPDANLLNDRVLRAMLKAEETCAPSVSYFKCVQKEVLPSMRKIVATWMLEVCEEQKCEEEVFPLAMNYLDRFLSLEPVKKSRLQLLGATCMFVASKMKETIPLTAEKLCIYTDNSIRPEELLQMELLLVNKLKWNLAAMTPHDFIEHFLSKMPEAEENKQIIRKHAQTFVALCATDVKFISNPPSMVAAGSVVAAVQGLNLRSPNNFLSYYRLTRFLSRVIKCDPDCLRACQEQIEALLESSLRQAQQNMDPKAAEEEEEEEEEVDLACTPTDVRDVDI

For the compound `CCN1CCN(c2ccc(Nc3ncc4cc(C(=O)N(C)C)n(N5CCCCC5)c4n3)nc2)CC1` [Example 26, N,N-dimethyl-2-((5-(4-ethylpiperazin-1-yl)pyridin-2-yl)amino)-7-(piperidin-1-yl)-7H-pyrrolo[2,3-d]pyrimidine-6-carboxamide], the IC50 on CDK1/CyclinB was above 500 nM; on CDK4/CyclinD1 it was below 100 nM; with Colo205 cells it was 500 to 2000 nM.
On to `CN(C)C(=O)c1cc2cnc(Nc3ccc(N4CCNCC4)cn3)nc2n1N1CCCCCC1` [Example 15, 7-(hexamethyleneimin-1-yl)N,N-dimethyl-2-((5-(piperazin-1-yl)pyridin-2-yl)amino)-7H-pyrrolo[2,3-d]pyrimidine-6-carboxamide], for which the IC50 against CDK1/CyclinB was above 500 nM; on CDK4/CyclinD1, below 100 nM; in the experiment with Colo205 cells, above 2000 nM.
For `CN(C)C(=O)c1cc2cnc(Nc3ccc(N4CCNCC4)cn3)nc2n1N1CCOCC1` [Example 28, N,N-dimethyl-2-((5-(piperazin-1-yl)pyridin-2-yl)amino)-7-morpholino-7H-pyrrolo[2,3-d]pyrimidine-6-carboxamide], on CDK4/CyclinD1, the IC50 was in the range of 100 to 500 nM.
On the same count and under the same terms, under `CN1CCN(c2ccc(Nc3ncc4cc(C(=O)N(C)C)n(N5CCOCC5)c4n3)nc2)CC1` [Example 22, N,N-dimethyl-2-((5-(4-methylpiperazin-1-yl)pyridin-2-yl)amino)-7-morpholino-7H-pyrrolo[2,3-d]pyrimidine-6-carboxamide] stands 100 to 500 nM.
For the compound `CN(C)C(=O)c1cc2cnc(Nc3ccc(N4CCOCC4)cn3)nc2n1N1CCCCC1` [Example 25, N,N-dimethyl-2-((5-morpholinopyridin-2-yl)amino)-7-(piperidin-1-yl)-7H-pyrrolo[2,3-d]pyrimidine-6-carboxamide], the figures for the IC50 on CDK1/CyclinB, against CDK4/CyclinD1 and in the experiment on Colo205 cells were above 500 nM, below 100 nM and above 2000 nM, respectively.
The like results for `CN1CCN(c2ccc(Nc3ncc4cc(C(=O)N(C)C)n(N5CCCCC5)c4n3)nc2)CC1` [Example 14, N,N-dimethyl-2-((5-(4-methylpiperazin-1-yl)pyridin-2-yl)amino)-7-(piperidin-1-yl)-7H-pyrrolo[2,3-d]pyrimidine-6-carboxamide] were, in that order, above 500 nM, below 100 nM and 500 to 2000 nM.
For `CN1CCN(c2ccc(Nc3ncc4cc(C(=O)N5CCC5)n(N5CCCCC5)c4n3)nc2)CC1` [Example 16, Azetidin-1-yl-(2-((5-(4-methylpiperazin-1-yl)pyridin-2-yl)amino)-7-(piperidin-1-yl)-7H-pyrrolo[2,3-d]pyrimidin-6-yl)methanone] the same measures were above 500 nM, below 100 nM and 500 to 2000 nM.
In the case of `CNC(=O)c1cc2cnc(Nc3ccc(N4CCNCC4)cn3)nc2n1N1CCCCC1` [Example 18, N-methyl-2-((5-(piperazin-1-yl)pyridin-2-yl)amino)-7-(piperidin-1-yl)-7H-pyrrolo[2,3-d] pyrimidine-6-carboxamide], the IC50 at CDK1/CyclinB is above 500 nM; against CDK4/CyclinD1, below 100 nM; with Colo205 cells, 500 to 2000 nM.
The like results for `CN1CCN(c2ccc(Nc3ncc4cc(C(=O)N5CCCC5)n(N5CCCCC5)c4n3)nc2)CC1` [Example 21, (2-((5-(4-methylpiperazin-1-yl)pyridin-2-yl)amino)-7-(piperidin-1-yl)-7H-pyrrolo[2,3-d]pyrimidin-6-yl)-pyrrolidin-1-ylmethanone] were, in that order, above 500 nM, below 100 nM and above 2000 nM.
Take `CN(C)C(=O)c1cc2cnc(Nc3ccc(N4CCNCC4)cn3)nc2n1N1CCCCC1` [Example 13]: the IC50 was below 100 nM against CDK4/CyclinD1 and 500 to 2000 nM with Colo205 cells.
Regarding `CN(C)C(=O)c1cc2cnc(Nc3ccc(N4CCN(C(=O)OC(C)(C)C)CC4)cn3)nc2n1N1CCCCC1` [Example 12], the IC50 against CDK4/CyclinD1 was below 100 nM; with Colo205 cells, above 2000 nM.
Regarding `CN(C)C(=O)c1cc2cnc(Nc3ccc(N4CCNCC4)cn3)nc2n1N1CCCC1` [Example 24, N,N-dimethyl-2-((5-(piperazin-1-yl)pyridin-2-yl)amino)-7-(pyrrolidin-1-yl)-7H-pyrrolo[2,3-d]pyrimidine-6-carboxamide], the IC50 on CDK1/CyclinB was above 500 nM; against CDK4/CyclinD1 it was below 100 nM; in the experiment on Colo205 cells, above 2000 nM.
Consider `CCN(CC)C(=O)c1cc2cnc(Nc3ccc(N4CCNCC4)cn3)nc2n1N1CCCCC1` [Example 29, N,N-diethyl-2-((5-(piperazin-1-yl)pyridin-2-yl)amino)-7-(piperidin-1-yl)-7H-pyrrolo[2,3-d]pyrimidine-6-carboxamide], for which the IC50 is above 500 nM on CDK1/CyclinB, below 100 nM against CDK4/CyclinD1 and above 2000 nM in the experiment on Colo205 cells.
The like results for `O=C(c1cc2cnc(Nc3ccc(N4CCNCC4)cn3)nc2n1N1CCCCC1)N1CCC1` [Example 17, Azetidin-1-yl-(2-((5-(piperazin-1-yl)pyridin-2-yl)amino)-7-(piperidin-1-yl)-7H-pyrrolo[2,3-d]pyrimidin-6-yl)methanone] were, in that order, above 500 nM, below 100 nM and above 2000 nM.
As for `CN(C)C(=O)c1cc2cnc(Nc3ccc(N4CCN(C(=O)OC(C)(C)C)CC4)cn3)nc2n1N1CCCC1` [Example 19, Tert-butyl 4-(6-((6-(dimethylcarbamoyl)-7-(pyrrolidin-1-yl)-7H-pyrrolo[2,3-d]pyrimidin-2-yl)amino)pyridin-3-yl)piperazine-1-carboxylate], the IC50 on CDK4/CyclinD1 was below 100 nM; in the experiment on Colo205 cells, above 2000 nM.
With `C[C@@H]1CN(c2ccc(Nc3ncc4cc(C(=O)N(C)C)n(N5CCCCC5)c4n3)nc2)C[C@H](C)N1` [Example 27, 2-((5-((3S,5R)-3,5-dimethylpiperazin-1-yl)pyridin-2-yl)amino)-N,N-dimethyl-7-(piperidin-1-yl)-7H-pyrrolo[2,3-d]pyrimidine-6-carboxamide], the values for the IC50 at CDK1/CyclinB, on CDK4/CyclinD1 and in the experiment on Colo205 cells were above 500 nM, below 100 nM and 500 to 2000 nM, respectively.
The like results for `O=C(c1cc2cnc(Nc3ccc(N4CCNCC4)cn3)nc2n1N1CCCCC1)N1CCCC1` [Example 23, (2-((5-(piperazin-1-yl)pyridin-2-yl)amino)-7-(piperidin-1-yl)-7H-pyrrolo[2,3-d]pyrimidin-6-yl)-pyrrolidin-1-ylmethanone] were, in that order, above 500 nM, below 100 nM and above 2000 nM.
The like results for `CN(C)C(=O)c1cc2cnc(Nc3ccc(N4CCNC(C)(C)C4)cn3)nc2n1N1CCCCC1` [Example 20, 2-((5-(3,3-dimethylpiperazin-1-yl)pyridin-2-yl)amino)-N,N-dimethyl-7-(piperidin-1-yl)-7H-pyrrolo[2,3-d]pyrimidine-6-carboxamide] were, in that order, above 500 nM, below 100 nM and 500 to 2000 nM.
